Measurements taken from PubChem BioAssay (NCI).
Several values for one entry are separate records, joined by “and”; a condition that tells them apart may be missing. Equal entries are not always repeated.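 How tested: cells in 96-well plates exposed to compound for 48 hours at five concentrations. At the GI50, growth is halved. TGI: total growth inhibition.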 Starred links: 1 amine or outer side, 2 acyl side, 3 side chain; linkers in the order of their positions; H or OH if unused. Positions of bridges follow the written chain, without caps; N, C: chain ends. Non-standard residues stand in square brackets, D forms with d. Residues, ends and D or L forms follow the SMILES beside them. Chains are numbered I, II in the order given. Actinocin(1to9) = Cc1c2oc3c(C)ccc(C(=O)[*:2])c3nc-2c(C(=O)[*:1])c(N)c1=O; NMeV = CN[CH](C(=O)O)C(C)C; Sar = CNCC(=O)O

Legend:
Experiment in all cases: NCI-60 cell line screen, 48 h
OVCAR-4 ovarian = tested on: OVCAR-4 ovarian
MDA-MB-231 breast = tested on: MDA-MB-231 breast
UACC-257 melanoma = tested on: UACC-257 melanoma
UACC-62 melanoma = tested on: UACC-62 melanoma
SK-MEL-28 melanoma = tested on: SK-MEL-28 melanoma
MALME-3M melanoma = tested on: MALME-3M melanoma
HCC-2998 colon = tested on: HCC-2998 colon
SF-539 CNS = tested on: SF-539 CNS
786-0 renal = tested on: 786-0 renal
SF-295 CNS = tested on: SF-295 CNS
LOX IMVI melanoma = tested on: LOX IMVI melanoma
UO-31 renal = tested on: UO-31 renal
MDA-MB-435 = tested on: MDA-MB-435
OVCAR-8 ovarian = tested on: OVCAR-8 ovarian
NCI/ADR-RES ovarian = tested on: NCI/ADR-RES ovarian
HT29 colon = tested on: HT29 colon
KM12 colon = tested on: KM12 colon

SMILES | GI50 (OVCAR-4 ovarian) | TGI (OVCAR-4 ovarian) | TGI (MDA-MB-231 breast) | TGI (UACC-257 melanoma) | TGI (UACC-62 melanoma) | GI50 (SK-MEL-28 melanoma) | TGI (MALME-3M melanoma) | TGI (HCC-2998 colon) | TGI (SF-539 CNS) | TGI (786-0 renal) | TGI (SF-295 CNS) | TGI (LOX IMVI melanoma) | TGI (UO-31 renal) | TGI (MDA-MB-435) | TGI (OVCAR-8 ovarian) | GI50 (NCI/ADR-RES ovarian) | TGI (NCI/ADR-RES ovarian) | TGI (HT29 colon) | TGI (SK-MEL-28 melanoma) | TGI (KM12 colon)
O=[N+]([O-])c1cccc2nc3ccccc3c(NCCCn3ccnc3[N+](=O)[O-])c12 | 0.0203 µM | 0.0735 µM and 0.171 µM | 0.0119 µM | 0.0208 µM and 0.0207 µM | 0.0187 µM | 45.4 µM | 0.00107 µM | 0.000515 µM | 0.0218 µM and 0.055 µM | 0.0137 µM | 0.214 µM and 0.0415 µM | 0.13 µM and 0.0216 µM | 0.00595 µM and 0.038 µM | 0.000231 µM | 0.0126 µM and 0.0167 µM | 0.0125 µM | 0.495 µM and 0.348 µM | 0.00124 µM | – | –
Cc1ccccc1N=Nc1c(O)c(S(=O)(=O)O)cc2cc(S(=O)(=O)O)ccc12 | – | > 100 µM | > 100 µM | > 100 µM | > 100 µM | – | > 100 µM | > 100 µM | > 100 µM | > 100 µM | > 100 µM | – | > 100 µM | > 100 µM | > 100 µM | – | > 100 µM | > 100 µM | > 100 µM | > 100 µM
CC(=O)Nc1c(S(=O)(=O)c2ccccc2)c(C)c(C)n1CCN(C)C | – | > 100 µM | > 100 µM | > 100 µM | > 100 µM | – | > 100 µM | > 100 µM | > 100 µM | > 100 µM | > 100 µM | – | > 100 µM | > 100 µM | > 100 µM | – | > 100 µM | > 100 µM | > 100 µM | > 100 µM
Cc1ccc(S(=O)(=O)NC(=O)NCCc2cnc[nH]2)cc1 | – | > 100 µM | > 100 µM | – | > 100 µM | – | > 100 µM | > 100 µM | > 100 µM | > 100 µM | > 100 µM | > 100 µM | > 100 µM | > 100 µM | > 100 µM | – | > 100 µM | > 100 µM | > 100 µM | > 100 µM
CC(O)(Cc1ccccc1C#N)Cc1ccccc1C#N | – | > 100 µM | > 100 µM | > 100 µM | > 100 µM | – | > 100 µM | > 100 µM | > 100 µM | > 100 µM | > 100 µM | > 100 µM | – | > 100 µM | > 100 µM | – | > 100 µM | > 100 µM | > 100 µM | > 100 µM
N#Cc1nc(CCN2C(=O)c3ccccc3C2=O)oc1N | – | > 100 µM | > 100 µM | > 100 µM | – | – | > 100 µM | > 100 µM | > 100 µM | > 100 µM | > 100 µM | > 100 µM | > 100 µM | > 100 µM | > 100 µM | – | > 100 µM | > 100 µM | > 100 µM | > 100 µM
S=c1[nH]nc(CNc2ccc(-c3n[nH]c(=S)n3-c3ccc(Cl)cc3)cc2)n1-c1ccc(Cl)cc1 | – | > 100 µM | > 100 µM | > 100 µM | 78.8 µM | – | 59.9 µM | > 100 µM | – | 70 µM | 81.2 µM | – | 32.4 µM | > 100 µM | – | – | > 100 µM | 66.7 µM | 64.2 µM | 44 µM
C=C=C(CC1CCCCC1=O)S(=O)(=O)c1ccccc1 (stereo unspecified) | – | > 10 µM | > 10 µM | > 10 µM | > 10 µM | – | > 10 µM | > 10 µM | > 10 µM | > 10 µM | > 10 µM | > 10 µM | > 10 µM | > 10 µM | > 10 µM | – | > 10 µM | > 10 µM | > 10 µM | –
CC(C)=CCC[C@@H](C)/C=C/C=C(\C)C(=O)CC[C@@H]1CC[N@+]2(C)CCCC[C@H]12 | – | > 100 µM | > 100 µM | > 100 µM | > 100 µM | – | > 100 µM | > 100 µM | > 100 µM | > 100 µM | > 100 µM | > 100 µM | > 100 µM | > 100 µM | > 100 µM | – | > 100 µM | – | > 100 µM | > 100 µM
N#Cc1cc(C#N)c(N)nc1N | – | > 100 µM | > 100 µM | > 100 µM | > 100 µM | – | > 100 µM | > 100 µM | > 100 µM | > 100 µM | > 100 µM | > 100 µM | > 100 µM | > 100 µM | > 100 µM | – | > 100 µM | > 100 µM | – | > 100 µM
CCCNC(=S)/N=C/c1c(O)cc(C)oc1=O | – | > 100 µM | > 100 µM | > 100 µM | > 100 µM | – | – | > 100 µM | > 100 µM | > 100 µM | > 100 µM | > 100 µM | > 100 µM | > 100 µM | > 100 µM | – | > 100 µM | > 100 µM | > 100 µM | > 100 µM
CC(NC(=O)/C(=C/c1ccccc1)NC(=O)c1ccccc1)C(=O)O (stereo unspecified) | – | – | > 100 µM | > 100 µM | > 100 µM | – | > 100 µM | > 100 µM | 96.6 µM | > 100 µM | > 100 µM | > 100 µM | > 100 µM | > 100 µM | > 100 µM | – | > 100 µM | > 100 µM | > 100 µM | > 100 µM
O=c1[nH]c(Cc2ccccc2)nc2c1sc1nc3ccccc3n12 | – | > 100 µM | > 100 µM | > 100 µM | > 100 µM | – | – | > 100 µM | > 100 µM | > 100 µM | > 100 µM | > 100 µM | > 100 µM | > 100 µM | > 100 µM | – | > 100 µM | > 100 µM | > 100 µM | > 100 µM
C=CCn1c(-c2ccc([N+](=O)[O-])cc2)cs/c1=N\C(P(=O)(O)O)P(=O)(O)O | – | – | > 100 µM | > 100 µM | > 100 µM | – | > 100 µM | > 100 µM | > 100 µM | > 100 µM | > 100 µM | > 100 µM | > 100 µM | > 100 µM | > 100 µM | – | > 100 µM | > 100 µM | > 100 µM | > 100 µM
C#C[C@]1(O)CC[C@H]2[C@@H]3CCC4=C/C(=N/OCCN(C)C)CC[C@]4(C)[C@H]3CC[C@@]21C | – | > 100 µM | > 100 µM | > 100 µM | > 100 µM | – | 60.6 µM | > 100 µM | – | > 100 µM | 32.4 µM | > 100 µM | > 100 µM | 32.2 µM | > 100 µM | – | > 100 µM | > 100 µM | > 100 µM | > 100 µM
CCC(C)C1NC(=O)C(NC(=O)c2c3nc4c(C(=O)NC5C(=O)NC(C(C)CC)C(=O)N6CCCC6C(=O)N(C)CC(=O)N(C)C(C(C)C)C(=O)OC5C)ccc(C)c4oc-3c(C)c(=O)c2N)C(C)OC(=O)C(C(C)C)N(C)C(=O)CN(C)C(=O)C2CCCN2C1=O (stereo unspecified) (I: TIP[Sar][NMeV] / II: TIP[Sar][NMeV]; ester I:1-I:C, II:1-II:C; linker I:N-II:N via Actinocin(1to9); configuration not given here) | – | 0.273 µM | 0.156 µM and 0.481 µM | 0.00726 µM | 0.0105 µM | – | 0.0202 µM | 0.0364 µM | 0.00698 µM | 10.4 µM | – | – | 0.143 µM and 0.316 µM | 0.0169 µM | 0.125 µM | – | 2.63 µM | 11.5 µM | 0.0152 µM | 0.194 µM
O=c1[nH]c(=O)n(COCc2ccccc2)c2ccsc12 | – | > 100 µM | > 100 µM | > 100 µM | – | – | > 100 µM | > 100 µM | > 100 µM | > 100 µM | – | > 100 µM | – | > 100 µM | > 100 µM | – | > 100 µM | > 100 µM | > 100 µM | > 100 µM
O=c1oc2ccccc2nc1/C=C(\O)c1ccc(Cl)cc1 | – | > 100 µM | > 100 µM | > 100 µM | > 100 µM | – | > 100 µM | > 100 µM | > 100 µM | > 100 µM | > 100 µM | – | > 100 µM | > 100 µM | > 100 µM | – | > 100 µM | > 100 µM | – | > 100 µM
CC#CC(O)(C(=O)OCCCN(C)C)C1CCCCC1 (stereo unspecified) | – | – | > 100 µM | > 100 µM | > 100 µM | – | > 100 µM | > 100 µM | > 100 µM | > 100 µM | > 100 µM | > 100 µM | > 100 µM | > 100 µM | > 100 µM | – | > 100 µM | > 100 µM | > 100 µM | > 100 µM
Cc1cn([C@@H]2C[C@@H]2CO)c(=O)[nH]c1=O | – | > 100 µM | > 100 µM | > 100 µM | > 100 µM | – | > 100 µM | > 100 µM | > 100 µM | > 100 µM | – | > 100 µM | > 100 µM | > 100 µM | > 100 µM | – | > 100 µM | > 100 µM | > 100 µM | > 100 µM
NC(Cc1ccc(OCc2ccccc2)cn1)C(=O)O (stereo unspecified) | – | – | > 100 µM | > 100 µM | – | – | > 100 µM | > 100 µM | > 100 µM | > 100 µM | > 100 µM | > 100 µM | > 100 µM | > 100 µM | > 100 µM | – | > 100 µM | > 100 µM | > 100 µM | > 100 µM
